Experimental data from US6583125B2 (priority 1992, dated 2003).
Read-outs that look alike come from different tables or passages of the source. *1 amine or outer side, *2 acyl side, *3 side chain or, on linkers, in order; H or OH if unused. Where a SMILES comes first, the peptide text is derived from it. Bridges are numbered along the chain shown (N, C = ends). Roman numbers before positions name the chains, in order. [ ]: non-standard residue; d: D form. Actinocin(9to1) = Cc1c2oc3c(C)ccc(C(=O)[*:1])c3nc-2c(C(=O)[*:2])c(N)c1=O; NMeV = CN[C@H](C(=O)O)C(C)C; Sar = CNCC(=O)O

Columns and labels:
[1] = human, in vivo; cited from earlier work
rats [2] = settings: rat, in vivo
[3] = rat, in vivo
rats [4] = settings: rat, in vivo; remark: listed apart in the source
[5] = rat, in vivo; remark: listed apart in the source
rats [6] = settings: rat, in vivo; remark: listed apart in the source
[7] = male, Charles Rivers CD (Sprague-Dawley)

Which “Acute Local tissue Effects (infiltration)” value [1] does the source give for CO[C@@H]1[C@H](O)C[C@@H](O[C@@H]2C[C@H](Oc3cc4cc5c(c(O)c4c(O)c3C)C(=O)[C@@H](O[C@H]3C[C@@H](O[C@H]4C[C@@H](O[C@H]6C[C@](C)(O)[C@@H](OC(C)=O)[C@H](C)O6)[C@H](O)[C@@H](C)O4)[C@H](O)[C@@H](C)O3)[C@H]([C@H](OC)C(=O)[C@@H](O)[C@@H](C)O)C5)O[C@H](C)[C@@H]2OC(C)=O)O[C@@H]1C [Chromomycin A3] here?
The value was “Sever tissue sloughing”.

What about the “Frequency of Phlebitis” value [1] of the same molecule?
The value was “Frequent”.

Which rats with lesions (rats [2]; [7]) does the source give for COc1cccc2c1C(=O)c1c(O)c3c(c(O)c1C2=O)C[C@@](O)(C(=O)CO)C[C@@H]3O[C@H]1C[C@H](N)[C@H](O)[C@H](C)O1 [Doxorubicin, 10-[(3-amino-2,3,6-tri-deoxy-α-L-lyxo-hexopyransoyl)oxy]-7,8,9,10-tetrahydro-6,8,-11-trihydroxy-8-(hydroxyacetyl)-1-methyoxy-5,12-naphthacenedione] here?
Its rats with lesions is “all 8”.

What about the “rats with necrotic lesions of the skin” value (rats [2]; [7]) of the same molecule?
Its value is “all 8”.

What about the “Frequency of Phlebitis” value [1] of the same molecule?
Its value is “Frequent”.

And the “effect on body weight” value [3]?
Its value is “no adverse effect on body weight”.

With CC(=O)[C@]1(O)Cc2c(O)c3c(c(O)c2[C@@H](O[C@H]2C[C@H](N)[C@H](O)[C@H](C)O2)C1)C(=O)c1ccccc1C3=O [Idarubicin] as the molecule, how does the “Frequency of Phlebitis” value [1] read?
Its value is “Frequent”.

Which rats with lesions (rats [4]; male, Charles Rivers CD) does the source give for CC(=O)O[C@H]1C(=O)[C@@]2(C)[C@H]([C@H](OC(=O)c3ccccc3)[C@]3(O)C[C@H](OC(=O)[C@H](O)[C@@H](NC(=O)c4ccccc4)c4ccccc4)C(C)=C1C3(C)C)[C@]1(OC(C)=O)CO[C@@H]1C[C@@H]2O [Taxol CV, Taxol] here?
Its rats with lesions is “all 8”.

For COc1cc([C@@H]2c3cc4c(cc3[C@@H](O[C@@H]3O[C@@H]5CO[C@@H](c6cccs6)O[C@H]5[C@H](O)[C@H]3O)[C@H]3COC(=O)[C@H]23)OCO4)cc(OC)c1O [Tenoposide], which “Frequency of Phlebitis” value [1] is on record?
The value was “Frequent”.

For CC[C@]1(O)C[C@H]2CN(CCc3c([nH]c4ccccc34)[C@@](C(=O)OC)(c3cc4c(cc3OC)N(C=O)[C@H]3[C@@](O)(C(=O)OC)[C@H](OC(C)=O)[C@]5(CC)C=CCN6CC[C@]43[C@@H]65)C2)C1 [Vincristine, 22-Oxoyincaleukoblastine], which “Frequency of Phlebitis” value [1] is on record?
The value was “Infrequent”.

What does the source list for CN(C)/N=N/c1[nH]cnc1C(N)=O [dacarbazine]?
Acute Local tissue Effects (infiltration) [1]: Pain, mild inflammation,; Frequency of Phlebitis [1]: Frequent

Which “Frequency of Phlebitis” value [1] does the source give for Cc1c2oc3c(C)ccc(C(=O)N[C@@H]4C(=O)N[C@H](C(C)C)C(=O)N5CCC[C@H]5C(=O)N(C)CC(=O)N(C)[C@@H](C(C)C)C(=O)O[C@@H]4C)c3nc-2c(C(=O)N[C@@H]2C(=O)N[C@H](C(C)C)C(=O)N3CCC[C@H]3C(=O)N(C)CC(=O)N(C)[C@@H](C(C)C)C(=O)O[C@@H]2C)c(N)c1=O [dactinomycin] (I: T[dV]P[Sar][NMeV] / II: T[dV]P[Sar][NMeV]; ester I:1-I:C, II:1-II:C; linker I:N-II:N via Actinocin(9to1)) here?
The value was “Frequent”.

With COc1cccc2c1C(=O)c1c(O)c3c(c(O)c1C2=O)C[C@@](O)(C(C)=O)C[C@@H]3O[C@H]1C[C@H](N)[C@H](O)[C@H](C)O1 [daunorubicin] as the molecule, how does the “Frequency of Phlebitis” value [1] read?
The value was “Frequent”.

Which results are given for CO[C@@]12[C@H](COC(N)=O)C3=C(C(=O)C(C)=C(N)C3=O)N1C[C@@H]1N[C@@H]12 [mitomycin-c]?
rats died ([5]; male): Five of 12; loss of initial body weight [5]: about 25%

With CN(N=O)C(=O)N[C@@H](C=O)[C@@H](O)[C@H](O)[C@H](O)CO [streptozocin] as the molecule, how does the “Frequency of Phlebitis” value [1] read?
The value was “Infrequent”.

What does the source list for hydroxypropyl-β-cyclodextrin [HPCD]?
diameter of the lesion in the one remaining animal (rats [2]): 0.3 cm; rats with no lesion at any sampling time (rats [2]): 7 of 8; effect on body weight [3]: no effect on body weight; lesion size (rats [6]): 3.5 mm; lesions caused (rats [4]): no lesions
